According to patent US11547681B2, “N-acylethanolamide derivatives and uses thereof” (ELIEM THERAPEUTICS, INC., priority 2016, dated 2023):

What was measured:
in vitro [1] = conditions: both, human; for Concentration (μM) of analyte PEA, 0 min / Concentration (μM) of analyte PEA, 10 min / Concentration (μM) of analyte PEA, 20 min / Concentration (μM) of analyte PEA, 30 min / Concentration (μM) of analyte PEA, 60 min / % Remaining of Initial (n = 1), 0 min / % Remaining of Initial (n = 1), 10 min / % Remaining of Initial (n = 1), 20 min / % Remaining of Initial (n = 1), 30 min / % Remaining of Initial (n = 1), 60 min / Measured concentration of PEA (analyte) / % Remaining of Initial: 1 μM
Outline: (§1)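 Test article (1 μM final) pre-equilibrated with intestinal S9 at 37 °C, then reaction started with cofactor cocktail; sampled at 0, 10, 20, 30 and 60 min and quenched in acidified acetonitrile. Prodrug and released PEA quantified by LC-MS/MS; half-life from single-phase exponential fit of percent remaining versus time 0.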

in vitro [2] = conditions: male, Sprague-Dawley, rat; for Concentration (μM) of analyte PEA, 0 min / Concentration (μM) of analyte PEA, 10 min / Concentration (μM) of analyte PEA, 20 min / Concentration (μM) of analyte PEA, 30 min / Concentration (μM) of analyte PEA, 60 min / % Remaining of Initial (n = 1), 0 min / % Remaining of Initial (n = 1), 10 min / % Remaining of Initial (n = 1), 20 min / % Remaining of Initial (n = 1), 30 min / % Remaining of Initial (n = 1), 60 min / Measured concentration of PEA (analyte) / % Remaining of Initial: 1 μM
Outline: as §1

in vitro [3] = conditions: male, Beagle, dog; for Concentration (μM) of analyte PEA, 0 min / Concentration (μM) of analyte PEA, 10 min / Concentration (μM) of analyte PEA, 20 min / Concentration (μM) of analyte PEA, 30 min / Concentration (μM) of analyte PEA, 60 min / % Remaining of Initial (n = 1), 0 min / % Remaining of Initial (n = 1), 10 min / % Remaining of Initial (n = 1), 20 min / % Remaining of Initial (n = 1), 30 min / % Remaining of Initial (n = 1), 60 min / Measured concentration of PEA (analyte) / % Remaining of Initial: 1 μM
Outline: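 Half-lives are based on fitting compound loss over 0, 10, 20, 30 and 60 min to a single exponential, with amounts expressed against the zero-time sample. Reactions hold 1 μM substrate in S9 at 37 °C, start on cofactor addition, and are stopped with cold acetonitrile containing formic acid.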

[4] = s9, CLint (mL/min/mg protein), calculated value in parentheses
[5] = s9, Half-life (min), calculated half-life in parentheses

CCCCC/C=C\C/C=C\CCCCCCCC(=O)OCCNC(=O)CCCCCCCCCCCCCCC [Compound I-6]
Concentration (μM) of analyte PEA, 0 min (in vitro [1]; 0 min): 0.0089 µM | Concentration (μM) of analyte PEA, 10 min (in vitro [1]; 10 min): 0.023 µM | Concentration (μM) of analyte PEA, 20 min (in vitro [1]; 20 min): 0.043 µM | Concentration (μM) of analyte PEA, 30 min (in vitro [1]; 30 min): 0.056 µM | Concentration (μM) of analyte PEA, 60 min (in vitro [1]; 60 min): 0.072 µM | % Remaining of Initial (n = 1), 0 min (in vitro [1]; s9, 0 h): 100% | % Remaining of Initial (n = 1), 10 min (in vitro [1]; s9, 10 min): 109% | % Remaining of Initial (n = 1), 20 min (in vitro [1]; s9, 20 min): 103% | % Remaining of Initial (n = 1), 30 min (in vitro [1]; s9, 0.5 h): 82% | % Remaining of Initial (n = 1), 60 min (in vitro [1]; s9, 1 h): 70% | microsomal CLint at 1 μM (in vitro [1]; s9, CLint (mL/min/mg protein)): < 11.6 µL/min/mg | microsomal CLint at 1 μM (in vitro [1]; [4]): 6.82 µL/min/mg | half-life at 1 μM (in vitro [1]; s9, Half-life (min)): > 60 min | half-life at 1 μM (in vitro [1]; [5]): 102 min | Concentration (μM) of analyte PEA, 0 min (in vitro [2]; 0 min): 0.069 µM | Concentration (μM) of analyte PEA, 10 min (in vitro [2]; 10 min): 0.088 µM | Concentration (μM) of analyte PEA, 20 min (in vitro [2]; 20 min): 0.094 µM | Concentration (μM) of analyte PEA, 30 min (in vitro [2]; 30 min): 0.10 µM | Concentration (μM) of analyte PEA, 60 min (in vitro [2]; 60 min): 0.11 µM | % Remaining of Initial (n = 1), 0 min (in vitro [2]; s9, 0 h): 100% | % Remaining of Initial (n = 1), 10 min (in vitro [2]; s9, 10 min): 78% | % Remaining of Initial (n = 1), 20 min (in vitro [2]; s9, 20 min): 92% | % Remaining of Initial (n = 1), 30 min (in vitro [2]; s9, 0.5 h): 79% | % Remaining of Initial (n = 1), 60 min (in vitro [2]; s9, 1 h): 59% | microsomal CLint at 1 μM (in vitro [2]; s9, CLint (mL/min/mg protein)): < 11.6 µL/min/mg | microsomal CLint at 1 μM (in vitro [2]; [4]): 7.65 µL/min/mg | half-life at 1 μM (in vitro [2]; s9, Half-life (min)): > 60 min | half-life at 1 μM (in vitro [2]; [5]): 91 min | Concentration (μM) of analyte PEA, 0 min (in vitro [3]; 0 min): 0.26 µM | Concentration (μM) of analyte PEA, 10 min (in vitro [3]; 10 min): 0.42 µM | Concentration (μM) of analyte PEA, 20 min (in vitro [3]; 20 min): 0.38 µM | Concentration (μM) of analyte PEA, 30 min (in vitro [3]; 30 min): 0.35 µM | Concentration (μM) of analyte PEA, 60 min (in vitro [3]; 60 min): 0.36 µM | % Remaining of Initial (n = 1), 0 min (in vitro [3]; s9, 0 h): 100% | % Remaining of Initial (n = 1), 10 min (in vitro [3]; s9, 10 min): 54% | % Remaining of Initial (n = 1), 20 min (in vitro [3]; s9, 20 min): 53% | % Remaining of Initial (n = 1), 30 min (in vitro [3]; s9, 0.5 h): 45% | % Remaining of Initial (n = 1), 60 min (in vitro [3]; s9, 1 h): 38% | microsomal CLint at 1 μM (in vitro [3]; s9, CLint (mL/min/mg protein)): 20.1 µL/min/mg | half-life at 1 μM (in vitro [3]; s9, Half-life (min)): 34 min

CCCCCCCCCCCCCCCC(=O)NCCOC(=O)CCC(=O)OC[C@H]1O[C@@](CO)(O[C@H]2O[C@H](CO)[C@@H](O)[C@H](O)[C@H]2O)[C@@H](O)[C@@H]1O [Compound I-7]
Concentration (μM) of analyte PEA, 0 min (in vitro [1]; 0 min): 0.090 µM | Concentration (μM) of analyte PEA, 10 min (in vitro [1]; 10 min): 0.46 µM | Concentration (μM) of analyte PEA, 20 min (in vitro [1]; 20 min): 0.62 µM | Concentration (μM) of analyte PEA, 30 min (in vitro [1]; 30 min): 0.63 µM | Concentration (μM) of analyte PEA, 60 min (in vitro [1]; 60 min): 0.48 µM | % Remaining of Initial (n = 1), 0 min (in vitro [1]; s9, 0 h): 100% | % Remaining of Initial (n = 1), 10 min (in vitro [1]; s9, 10 min): 46% | % Remaining of Initial (n = 1), 20 min (in vitro [1]; s9, 20 min): 22% | % Remaining of Initial (n = 1), 30 min (in vitro [1]; s9, 0.5 h): 9.8% | % Remaining of Initial (n = 1), 60 min (in vitro [1]; s9, 1 h): 3.8% | Concentration (μM) of analyte PEA, 0 min (in vitro [2]; 0 min): 0.042 µM | Concentration (μM) of analyte PEA, 10 min (in vitro [2]; 10 min): 0.24 µM | Concentration (μM) of analyte PEA, 20 min (in vitro [2]; 20 min): 0.35 µM | Concentration (μM) of analyte PEA, 30 min (in vitro [2]; 30 min): 0.47 µM | Concentration (μM) of analyte PEA, 60 min (in vitro [2]; 60 min): 0.60 µM | % Remaining of Initial (n = 1), 0 min (in vitro [2]; s9, 0 h): 100% | % Remaining of Initial (n = 1), 10 min (in vitro [2]; s9, 10 min): 60% | % Remaining of Initial (n = 1), 20 min (in vitro [2]; s9, 20 min): 37% | % Remaining of Initial (n = 1), 30 min (in vitro [2]; s9, 0.5 h): 31% | % Remaining of Initial (n = 1), 60 min (in vitro [2]; s9, 1 h): 13% | Concentration (μM) of analyte PEA, 0 min (in vitro [3]; 0 min): 0.38 µM | Concentration (μM) of analyte PEA, 10 min (in vitro [3]; 10 min): 0.36 µM | Concentration (μM) of analyte PEA, 20 min (in vitro [3]; 20 min): 0.55 µM | Concentration (μM) of analyte PEA, 30 min (in vitro [3]; 30 min): 0.51 µM | Concentration (μM) of analyte PEA, 60 min (in vitro [3]; 60 min): 0.50 µM | % Remaining of Initial (n = 1), 0 min (in vitro [3]; s9, 0 h): 100% | % Remaining of Initial (n = 1), 10 min (in vitro [3]; s9, 10 min): 1.1% | % Remaining of Initial (n = 1), 20 min (in vitro [3]; s9, 20 min): <1.0% | % Remaining of Initial (n = 1), 30 min (in vitro [3]; s9, 0.5 h): <1.0% | % Remaining of Initial (n = 1), 60 min (in vitro [3]; s9, 1 h): <1.0% | microsomal CLint at 1 μM (in vitro [3]; s9, CLint (mL/min/mg protein)): 452 µL/min/mg | half-life at 1 μM (in vitro [3]; s9, Half-life (min)): 1.5 min

CCCCCCCCCCCCCCCC(=O)NCCOC(=O)CCC(=O)OC(CO)CO [Compound I-8]
Measured concentration of PEA (analyte) (in vitro [1]; 0 min): 0.021 µM | Measured concentration of PEA (analyte) (in vitro [1]; 10 min): 0.32 µM | Measured concentration of PEA (analyte) (in vitro [1]; 20 min): 0.39 µM | Measured concentration of PEA (analyte) (in vitro [1]; 30 min): 0.38 µM | Measured concentration of PEA (analyte) (in vitro [1]; 60 min): 0.38 µM | % Remaining of Initial (in vitro [1]; s9, 0 h): 100% | % Remaining of Initial (in vitro [1]; s9, 10 min): 31% | % Remaining of Initial (in vitro [1]; s9, 20 min): 7.0% | % Remaining of Initial (in vitro [1]; s9, 0.5 h): 1.8% | % Remaining of Initial (in vitro [1]; s9, 1 h): <1.0% | microsomal CLint at 1 μM (in vitro [1]; s9, CLint): > 69.3 µL/min/mg | half-life at 1 μM (in vitro [1]; s9, Half-life): < 10 min | Measured concentration of PEA (analyte) (in vitro [2]; 0 min): 0.022 µM | Measured concentration of PEA (analyte) (in vitro [2]; 10 min): 0.22 µM | Measured concentration of PEA (analyte) (in vitro [2]; 20 min): 0.34 µM | Measured concentration of PEA (analyte) (in vitro [2]; 30 min): 0.42 µM | Measured concentration of PEA (analyte) (in vitro [2]; 60 min): 0.45 µM | % Remaining of Initial (in vitro [2]; s9, 0 h): 100% | % Remaining of Initial (in vitro [2]; s9, 10 min): 58% | % Remaining of Initial (in vitro [2]; s9, 20 min): 37% | % Remaining of Initial (in vitro [2]; s9, 0.5 h): 22% | % Remaining of Initial (in vitro [2]; s9, 1 h): 6.2% | microsomal CLint at 1 μM (in vitro [2]; s9, CLint): 50.3 µL/min/mg | half-life at 1 μM (in vitro [2]; s9, Half-life): 14 min | Measured concentration of PEA (analyte) (in vitro [3]; 0 min): 0.33 µM | Measured concentration of PEA (analyte) (in vitro [3]; 10 min): 0.71 µM | Measured concentration of PEA (analyte) (in vitro [3]; 20 min): 0.81 µM | Measured concentration of PEA (analyte) (in vitro [3]; 30 min): 0.67 µM | Measured concentration of PEA (analyte) (in vitro [3]; 60 min): 0.81 µM | % Remaining of Initial (in vitro [3]; s9, 0 h): 100% | % Remaining of Initial (in vitro [3]; s9, 10 min): <1.0% | % Remaining of Initial (in vitro [3]; s9, 20 min): <1.0% | % Remaining of Initial (in vitro [3]; s9, 0.5 h): <1.0% | % Remaining of Initial (in vitro [3]; s9, 1 h): <1.0% | microsomal CLint at 1 μM (in vitro [3]; s9, CLint): > 69.3 µL/min/mg | half-life at 1 μM (in vitro [3]; s9, Half-life): < 10 min
